What was measured:
Format in all cases: cell-based
HepG2 cells = experiment: MTT toxicity assay; settings: 24 h; for GI50: Homo sapiens, test materials 100-500 μM, linear regression
Description: The cytotoxic effect was analyzed by using the MTT assay as described by Mosmann, J. Immunol Methods. 65:55-63 (1983), with minor modification. HepG2 cells were seeded at 5×10^3 cells/well into a 96-well plate and incubated for 24 h. Spent media was then replaced with fresh media containing test materials (100-500 μM) dissolved in DMSO. Vehicle control cells were treated only with DMSO. The plates were incubated in a CO2 incubator for 24 h. The spent media was then replaced with sterile MTT solution (5 mg/mL in PBS at pH—7.4; 100 μL/well) and incubated for another 3 h. The unreacted MTT dye was removed, and the formazan crystals were dissolved with DMSO (200 μL/well) and kept in dark for 30 min. The resulting purple color was quantified by measuring absorbance at 570 nm. The assays were performed thrice and the results were expressed in percentage in comparison to vehicle-treated cells. The following formula was used for calculation.
[formula] GI50 values were calculated using linear regression analysis.

[1] = tested on: palmitate-oleate induced steatotic HepG2 cells; experiment: Reduction of Oil Red O stain in palmitate-oleate induced steatotic HepG2 cells; settings: Homo sapiens, PO-BSA 1 mM, 24 h, test materials 12.5-50 μM
Description: (§1) Induction of steatosis was done in accordance with the protocol of Hetherington and coworkers, Cell Physiol Biochem. 39:1648-62 (2016), with slight modification. HepG2 cells were loaded in 24-well cell culture plates at a density of 4×10^4 cells/well and kept overnight. On the next day, the media were replaced with fresh media containing PO-BSA at 1 mM concentration, with or without test materials (12.5-50 μM) dissolved in DMSO. The cells supplemented with media containing only BSA (instead of PO-BSA) and treated with DMSO (FIG. 2A) served as the normal control. The cells supplemented with media containing PO-BSA and treated with DMSO (FIG. 2B) served as negative control. Fenofibrate (12.5-50 μM) (FIG. 2C) was used as the positive control. After 24 h of treatment, the cells were taken for the analyses.
After treatment, the amount of lipids accumulated into the cells was measured using ORO staining. Briefly, 24 h after treatment, the spent media was removed and the cells were fixed by incubating them with 10% formalin in PBS for 1 h at room temperature. Each well was washed with 60% aqueous isopropanol and was allowed to dry. […] Cell morphology was assessed and photographed (400×) using an inverted microscope. The ORO stain was eluted with 100% isopropanol and measured at 500 nm. […] The results were expressed as the percentage of absorbance of the sample to the absorbance of the control blank.

[2] = tested on: palmitate-oleate induced steatotic HepG2 cells; experiment: Triglyceride accumulation in palmitate-oleate induced HepG2 cells; settings: 50 μM, 24 h
Description: as §1
(§2) After treatment, the cells were harvested and lysed using 1×PBS under sonication at 3× for five second intervals at 40V setting over ice. The cell lysates were taken and estimated for TG and protein using commercial spectrophotometric kits. TG levels were normalized to the protein content, and results were expressed as mg TG/g protein. The MDA levels in the cell lysate were estimated using a commercial spectrophotometric kit. The levels of ALT were measured in the spent media, and cell lysate and percent ALT leakage was calculated using the following formula: […]

[3] = tested on: palmitate-oleate induced steatotic HepG2 cells; experiment: Lipoperoxide formation (MDA/TBARS) in palmitate-oleate induced HepG2 cells; settings: 50 μM, 24 h
Description: as §1, §2

[4] = tested on: palmitate-oleate induced steatotic HepG2 cells; experiment: ALT leakage of palmitate-oleate induced HepG2 cells; settings: 24 h
Description: as §1, §2

`C=C1CC[C@@H]2[C@](C)(CO)[C@H](O)CC[C@@]2(C)[C@@H]1C/C=C1/C(=O)OC[C@H]1O` [AN, Andrographolide] showed a GI50 (HepG2 cells) of 254 µM and an EC50 [1] of 43.3 µM.

`CCC(=O)OCC1(C)[C@H](O)CC[C@@]2(C)C3C[C@@H](C4=CCOC4=O)O[C@]3(C)CC[C@H]12` (some centres unmarked) [IAN-19P, isoandrographolide-19-propionate] was tested, and the “toxicity compared with AN (MTT assay)” value (HepG2 cells) was “comparatively lower toxicity than AN”, the GI50 (HepG2 cells) was 27000 µM and the EC50 [1] was 8.92 µM. The triglyceride level [2] was “come to normal”, the lipoperoxide formation [3] was “significantly lowered” and the ALT leakage [4] was “lowered ALT leakage”.

From patent US10064841B1, “Isoandrographolide-19-propionate for treatment of non-alcoholic fatty liver disease (NAFLD)” (KING SAUD UNIVERSITY, priority 2018, dated 2018)
